Data: patent US7579338B2, “Methods and compositions for treating atheroma, tumors and other neoplastic tissues” (Pharmacyclics, Inc., priority 1999, dated 2009)

Columns and labels:
[1] = Production of H2O2 in the presence of ascorbate (colorimetric); format: biochemical; settings: ascorbate plus GdTex, over the time interval of 75 to 200 minutes
Description: In this example, the following stock solutions were prepared: • Stock ascorbic acid (Sigma A 5960) (prepared fresh): 9.98 mg/(10 mL×176.12 mg/mmol)=5.67 mM • Stock GdTex: 5.76 mg/(10.0 mL water×1148 mg/mmol)=502 μM • Stock 4× Buffer: 200 mM HEPES, pH 7.5; 400 mM NaCl These were combined to form the reaction mixture: 200 μL 4× Buffer, 39 μL ascorbic acid Stock, 517.3 μL Water, 43.7 μL GdTex Stock. The reaction mixture was analyzed for hydrogen peroxide as indicated above. As a control, a solution in which complex was not added was prepared as above, with suitable adjustment of the volume of water, and analyzed concurrently.
Measurements of the absorbance at 560 nm (with appropriate subtraction of the background absorbance of the reagent at this wavelength) were made of samples taken at the various timepoints. It was noted that the control solution gave a uniform background absorbance which was similar at all time points, whereas the mixture containing GdTex gave an increasing amount of absorbance over time. (Sugars are known to produce high background absorbance in this assay, see manufacturers insert for details.)

[2] = test system: MES-SA human uterine cells; assay: Proliferation of MES-SA cells with ascorbate and texaphyrin (MTT); format: cell-based; settings: for cytotoxic effect of texaphyrin with 333 μM ascorbate: texaphyrin 25-100 μM, 5 hours exposure, MTT after 72 hours; for cytotoxic effect of texaphyrin at lower concentrations of ascorbate: ascorbate below 333 μM (111 μM and 62.5 μM for GdTex); for cytotoxic/inhibitory effect of texaphyrin in the absence of ascorbate: no ascorbate, texaphyrin up to 100 μM
Description: The proliferation of MES-SA human uterine cells (Harker, W. G.; MacKintosh, F. R.; Sikic, B. I. Cancer Res. 1983, 43, 4943-4950) grown in RPMI-1640 medium in the presence of ascorbate or complex was used to assess the formation of hydrogen peroxide under cell culture conditions.
(§1) 5A. Materials and Methods. MES-SA cells were allowed to adhere to (4) 96-well microtiter plates (4000 cells per well) overnight in 160 μL RPMI medium. Stock ascorbate 3.0 mM in medium (80 μL) was serially diluted (1:3) in rows B through F (discarding the final 80 μL). Row G was used for no-ascorbate control. Stock solutions of GdTex (2 mM in 5% mannitol) diluted in medium and 5% mannitol were prepared and added to the plates to give a final volume of 200 μL in all wells. Columns 2 and 3 contained 100 μM GdTex; columns 4 and 5 contained 75 μM GdTex, columns 6 and 7 contained 50 μM GdTex; columns 8 and 9 contained 25 μM GdTex; and columns 10 and 11 contained no GdTex (all concentrations final). Final mannitol concentration was 0.25% in all wells. The plates were incubated at 37 C under a 5% CO2/95% air atmosphere. Complex-containing medium was exchanged for fresh medium after 5 hours, and plates were incubated an additional 72 hours prior to analysis for viability using the tetrazolium dye, MTT (Mosmann, T. J. Immunol. Methods 1983, 65, 55-63). In brief, 20 μL MTT dye (Sigma Chemical, St. Louis, Mo., catalogue no. M 2128, 5 mg/mL solution in phosphate buffered saline) was added to cells in media to give a final volume of 200 μL. The plates were incubated at 37° C. for ca. 2 hours, whereupon the media was removed and isopropyl alcohol (100 μL/well) was added. Plates were vortexed for ca. 3 minutes to dissolve MTT formazan, then read on a microplate reader at 560-650 nm. Plate absorbances were normalized to wells containing neither ascorbate nor GdTex to allow plate to plate comparison. Data for each concentration of GdTex and ascorbate is the average of eight wells.
The proliferation of MES-SA human uterine cells grown in RPMI-1640 medium in the presence of ascorbate and LuTex was used to assess the production of hydrogen peroxide under cell culture conditions following the protocol outlined in the previous example.

[3] = test system: EMT-6 mouse mammary sarcoma cells; assay: Proliferation of EMT-6 cells with NADPH and texaphyrin (MTT); format: cell-based; settings: for inhibitory effect of texaphyrin with 1000 μM and 333 μM NADPH: NADPH 1000 μM and 333 μM; for inhibitory effect of texaphyrin at lower concentrations of NADPH: NADPH below 333 μM; for inhibitory effect of texaphyrin in the absence of NADPH: no NADPH
Description: as §1
(§2) The proliferation of EMT-6 mouse mammary sarcoma (Rockwell, S. C., et al., J. Natl. Cancer Inst. 1972, 49, 735-749) cells grown in RPMI-1640 medium in the presence of NADPH and motexafin lutetium was used to assess the production of hydrogen peroxide under cell culture conditions following the protocol outlined in the previous example.
as §2, with “GdTex” for “motexafin lutetium”

MES-SA cells = assay: Response of MES-SA cells to ionizing radiation, microtiter plate format (MTT); format: cell-based, human
Description: The response of MES-SA cells to ionizing radiation was studied using the microtiter plate format to confirm radiation sensitization potential. This assay is used to assess rapidly the effects of irradiation under a variety of conditions.
10A. Materials and Methods. MES-SA cells were incubated at 37° C. and allowed to adhere to 96-well microtiter plates (1000 cells per well) overnight in 160 μL McCoys 5A containing 10% FBS (Gibco-BRL) and ca. 2% penicillin/streptomycin solution (Sigma). BSO or media (20 μL) was added, respectively to test and control wells, 24 h prior to irradiation. Metallotexaphyrin complex (up to 100 μM) was added to the test wells to give a final volume of 200 μL, 18-24 h prior to irradiation. Plates were irradiated using a 137Cs irradiator (Model 40 Gammacell, J. L. Shepherd & Assoc., San Fernando, Calif.) at a dose rate of 33.25 Rad/min. A lead brick (2″ diameter) was positioned to protect a column of wells (no. 11) from ionizing radiation. Plate absorbances were normalized to shielded wells to allow plate-to-plate comparison. […] Reversing the position of texaphyrin complex-containing wells had no effect on assay outcome. Medium was exchanged immediately after irradiation, and plates were incubated an additional 120 h prior to analysis for viability using the MTT assay (as described, e.g., in Example 5).

animal tumor models = settings: reported in the literature; cited from earlier work

## CC(=O)[O-].CC(=O)[O-].CCc1c(CC)c2cc3nc(cnc4cc(OCCOCCOCCOC)c(OCCOCCOCCOC)cc4ncc4nc(cc1[n-]2)C(CCCO)=C4C)C(C)=C3CCCO.O.[Gd+3] [GdTex, motexafin gadolinium]
[1]
  H2O2 produced: approximately 35 μM
[2]
  cytotoxic effect of texaphyrin with 333 μM ascorbate: complete cytotoxicity
  cytotoxic effect of texaphyrin at lower concentrations of ascorbate: dose-response was observed
  cytotoxic/inhibitory effect of texaphyrin in the absence of ascorbate: no cytotoxic effect
[3]
  inhibitory effect of texaphyrin with 1000 μM and 333 μM NADPH: dose-response was observed
  inhibitory effect of texaphyrin at lower concentrations of NADPH: No inhibitory effect
  inhibitory effect of texaphyrin in the absence of NADPH: no inhibitory effect
MES-SA cells; 100 μM GdTex, no BSO (FIG. 17A)
  radiation sensitization: Radiation sensitization became more significant
MES-SA cells; all cells pre-incubated with 100 μM BSO (FIG. 17B)
  effect on apparent viability after irradiation with BSO: greater GdTex-dependent decrease in apparent viability
MES-SA cells; up to 50 μM GdTex for 24 h prior to irradiation, no BSO, adjusted for GdTex alone (FIG. 17A)
  effect on apparent viability after irradiation: small effect on apparent viability
Animal tumor models
  radiation sensitization in animal tumor models: enhance the efficacy of radiation

## CC(=O)[O-].CC(=O)[O-].CCc1c(CC)c2cc3nc(cnc4cc(OCCOCCOCCOC)c(OCCOCCOCCOC)cc4ncc4nc(cc1[n-]2)C(CCCO)=C4C)C(C)=C3CCCO.O.[Lu+3] [LuTex, motexafin lutetium]
[2]
  cytotoxic effect of texaphyrin with 333 μM ascorbate: dose-response was observed
  cytotoxic effect of texaphyrin at lower concentrations of ascorbate: No inhibitory effect
  cytotoxic/inhibitory effect of texaphyrin in the absence of ascorbate: no inhibitory effect
[3]
  inhibitory effect of texaphyrin with 1000 μM and 333 μM NADPH: dose-response was observed
  inhibitory effect of texaphyrin at lower concentrations of NADPH: No inhibitory effect
  inhibitory effect of texaphyrin in the absence of NADPH: no inhibitory effect
MES-SA cells; corresponding experiments, Example 10B
  radiation sensitization, texaphyrin substituted for GdTex: sensitization was not obtained
Animal tumor models
  radiation sensitization in animal tumor models: did not possess similar radiation sensitization properties
